The values that follow are results of earlier work, collected in article PMC6925144, “A prospective compound screening contest identified broader inhibitors for Sirtuin 1” (Scientific Reports, 2019).

In data set [1] the test system is human leukemia U937 cells. The arrangement: method as in PMID 18348515. As to conditions: cited from earlier work.
In another data set the test system is Sirtuin 1. The note with it: cited from earlier work.

For the compound `O=C1/C(=C/c2cc(Br)c(O)c(Br)c2)CCC/C1=C\c1cc(Br)c(O)c(Br)c1` [CHEMBL260149], the “effect on apoptosis induction and granulocytic differentiation” value in data set [1] was “high differentiating activity”. For the same compound, the “Inh. rate@25 μM” value with Sirtuin 1 (25 μM) is 0.95 (Inh. rate@25 μM: 50%)[57].
Take `CC(C)(C)NS(=O)(=O)c1ccc2c(c1)Nc1ccccc1CC2` [CHEMBL3222149]: the “Inh. rate@100 μM” value in the data set with Sirtuin 1 (100 μM) was 0.65 (Inh. rate@100 μM = 10%)[72].
